Experimental findings from PMC11513893, “Discovery of Oral Degraders of the ROS1 Fusion Protein with Potent Activity against Secondary Resistance Mutations” (Journal of Medicinal Chemistry, 2024) are described below.

The test system of assay [1] is Ba/F3 ROS1-G2032R. Nature of the assay: Antiproliferation assay. The format is cell-based, mouse. The following applies: Ba/F3 cells, cell growth inhibition, 72 h. The text has this: (§1) To assess targeted degradation of ROS1 fusion proteins, we first established a mouse pro-B cell line Ba/F3 as a model expressing the CD74-ROS1 oncogene or CD74-ROS1 with clinically observed secondary/tertiary mutations. The Ba/F3 cell line is dependent on interleukin-3 for survival and proliferation. Upon transduction of oncogenic ROS1, Ba/F3 cells become independent of interleukin-3 but dependent on the transduced driver gene.
(§2) Ba/F3 immortalized murine bone marrow–derived pro-B cells were obtained from Creative Biogene (Shirley, NY) and cultured in RPMI supplemented with 10% FBS and IL3 (0.5 ng/mL). Ba/F3 cells expressing ROS1 variants were maintained in RPMI supplemented with 10% FBS and puromycin (0.7 mg/mL). […] Each compound was dissolved in DMSO and serially diluted in RPMI for cell culture experiments.
(§3) To assess the 72 h effect of drug treatment on cell proliferation, 2000 to 3000 cells were plated in replicates of three in 96-well plates. The plates were placed in an incubator at 37 °C, 5% CO2 for 72 h. Following drug treatments, the cells were incubated with the Alamar Blue Assay reagent (BioRad), 5 μL each well for 4 h at 37 °C and 5% CO2. Luminescence was measured on a multiplate reader and analyzed. […] IC50 values were determined using a nonlinear regression model with a sigmoidal dose response in GraphPad. The data were collected based on triplicate experiments, and presented as mean ± SD.
(§4) The resulting virus was used to infect Ba/F3 cells. After retroviral infection, Ba/F3 cells were selected by incubation with puromycin (0.7 mg/mL) for 2 weeks. For Ba/F3 cells infected by the CD74–ROS1 variants, IL3 was withdrawn from the culture medium at least 2 weeks before the experiments.

Assay [2] relates to ROS1. Nature of the assay: ROS1 degradation in Ba/F3 cells (WES immunoblotting). The format is cell-based. To be noted: for DC50: concentration needed to reduce ROS1 protein by 50%, Ba/F3 cells; for Dmax (%) (ROS1): maximal degradation of ROS1 in Ba/F3 cells. As for the experimental part:
Protein levels were analyzed using a WES instrument according to the WES User Guide from ProteinSimple in duplicate experiments. The samples were mixed with the fluorescent 5 master mix (ProteinSimple) and then heated at 95 °C for 5 min. Boiled samples, biotinylated protein ladder, antibody diluent, Streptavidin-HRP, primary antibodies, ProteinSimple horseradish peroxidase conjugated antirabbit or antimouse secondary antibodies, luminol-peroxide, and wash buffer were loaded into the WES plate (Wes 12–230 kDa Prefilled Plates with Split Buffer, ProteinSimple). The plates and capillary cartridges were loaded into the WES instrument, and protein separation, antibody incubation, and imaging were performed according to manufacturer’s instructions. Compass software (ProteinSimple) was used to acquire the data and to generate the virtual blot image reconstruction and chemiluminescence signal intensity electropherograms. […] Protein levels are expressed as the AUC of the peak chemiluminescence intensity. Antibodies against phospho-ROS1(Tyr2274/2334) (E8F5J), ROS1 (D4D6(R)) were obtained from Cell Signaling Technology.

Assay [3] concerns Ba/F3 CD74-ROS1 non mutant. The assay is described as follows: Antiproliferation assay (Alamar Blue, 72 h). It is filed as cell-based, mouse. To be noted: Ba/F3 cells, cell growth inhibition.
From the text: as §1, §2, §3, §4
On the technique in general: Alamar Blue is a resazurin reagent that responds to reducing activity.

On to “3-(5-(4-((4-(4-((5-Chloro-4-((2-(dimethylphosphoryl)phenyl)amino)pyrimidin-2-yl)amino)-3-methoxyphenyl)piperazin-1-yl)methyl)piperidin-1-yl)-1-oxoisoindolin-2-yl)piperidine-2,6-dione [9n]”, for which the IC50 was 195 ± 124 nM in assay [1] and 9.5 ± 0.5 nM in assay [3]. In assay [2], it took 11 nM to reach half-maximal degradation (DC50). The “Dmax (%) (ROS1)” value in assay [2] worked out at 93%.

The compound “4-(3-(4-(1-(4-((5-Chloro-4-((2-(dimethylphosphoryl)phenyl)amino)pyrimidin-2-yl)amino)-3-methoxyphenyl)piperidin-4-yl)piperazin-1-yl)azetidin-1-yl)-2-(2,6-dioxopiperidin-3-yl)isoindoline-1,3-dione [9j]” came in with an IC50 in assay [1] of 1040 ± 96 nM. In addition, in assay [2], it took 108 nM to reach half-maximal degradation (DC50) and the “Dmax (%) (ROS1)” value turned out to be 77%. In addition, the IC50 in assay [3] turned out to be 113 ± 16 nM.

For the compound `C[C@@H](Oc1cc(-c2cnn(C3CCN(c4cccc5c4C(=O)N(C4CCC(=O)NC4=O)C5=O)CC3)c2)cnc1N)c1c(Cl)ccc(F)c1Cl` (stereo partly drawn) [7a, 4-(4-(4-(6-Amino-5-((R)-1-(2,6-dichloro-3-fluorophenyl)ethoxy)pyridin-3-yl)-1H-pyrazol-1-yl)piperidin-1-yl)-2-(2,6-dioxopiperidin-3-yl)isoindoline-1,3-dione], the IC50 in assay [1] (Mus musculus, BaF3) was greater than 5000 nM. In assay [2], the half-maximal degradation concentration (DC50) came to 310 nM and the “Dmax (%) (ROS1)” value is listed as 67%. In assay [3] (Mus musculus, BaF3, 72 h), this compound registered an IC50 of 264 ± 44 nM.

Consider `C[C@@H](Oc1cc(-c2cnn(C3CCN(CC4CN(c5cccc6c5C(=O)N(C5CCC(=O)NC5=O)C6=O)C4)CC3)c2)cnc1N)c1c(Cl)ccc(F)c1Cl` (stereo partly drawn) [7b, 4-(3-((4-(4-(6-Amino-5-((R)-1-(2,6-dichloro-3-fluorophenyl)ethoxy)pyridin-3-yl)-1H-pyrazol-1-yl)piperidin-1-yl)methyl)azetidin-1-yl)-2-(2,6-dioxopiperidin-3-yl)isoindoline-1,3-dione], for which the IC50 in assay [1] (Mus musculus, BaF3) is greater than 5000 nM. In assay [2], the DC50 was greater than 1000 nM and the “Dmax (%) (ROS1)” value is less than 5%. In addition, the IC50 in assay [3] (Mus musculus, BaF3, 72 h) was 2700 ± 254 nM.

Consider `C[C@@H](Oc1cc(-c2cnn(C3CCN(CC4CCN(c5cccc6c5C(=O)N(C5CCC(=O)NC5=O)C6=O)CC4)CC3)c2)cnc1N)c1c(Cl)ccc(F)c1Cl` (stereo partly drawn) [7c, 4-(4-((4-(4-(6-Amino-5-((R)-1-(2,6-dichloro-3-fluorophenyl)ethoxy)pyridin-3-yl)-1H-pyrazol-1-yl)piperidin-1-yl)methyl)piperidin-1-yl)-2-(2,6-dioxopiperidin-3-yl)isoindoline-1,3-dione], for which the IC50 in assay [1] (Mus musculus, BaF3) was greater than 5000 nM. Also, in assay [2], the DC50 came to 368 nM and the “Dmax (%) (ROS1)” value is recorded as 76%. The compound further displayed an IC50 in assay [3] (Mus musculus, BaF3, 72 h) of 350 ± 106 nM.

As for `C[C@@H](Oc1cc(-c2cnn(C3CCN(CCC4CCN(c5cccc6c5C(=O)N(C5CCC(=O)NC5=O)C6=O)CC4)CC3)c2)cnc1N)c1c(Cl)ccc(F)c1Cl` (stereo partly drawn) [7d, 4-(4-(2-(4-(4-(6-Amino-5-((R)-1-(2,6-dichloro-3-fluorophenyl)ethoxy)pyridin-3-yl)-1H-pyrazol-1-yl)piperidin-1-yl)ethyl)piperidin-1-yl)-2-(2,6-dioxopiperidin-3-yl)isoindoline-1,3-dione], the IC50 in assay [1] (Mus musculus, BaF3) was greater than 5000 nM. Moreover, in assay [2], the DC50 amounted to 145 nM and the “Dmax (%) (ROS1)” value was determined as 78%. Moreover, the IC50 in assay [3] (Mus musculus, BaF3, 72 h) is 106 ± 29 nM.

In turn, `C[C@@H](Oc1cc(-c2cnn(C3CCN(c4ccc5c(c4)C(=O)N(C4CCC(=O)NC4=O)C5=O)CC3)c2)cnc1N)c1c(Cl)ccc(F)c1Cl` (stereo partly drawn) [7e, 5-(4-(4-(6-Amino-5-((R)-1-(2,6-dichloro-3-fluorophenyl)ethoxy)pyridin-3-yl)-1H-pyrazol-1-yl)piperidin-1-yl)-2-(2,6-dioxopiperidin-3-yl)isoindoline-1,3-dione] returned an IC50 in assay [1] (Mus musculus, BaF3) of 2910 ± 742 nM. Also, in assay [2], the DC50 amounted to 203 nM and the “Dmax (%) (ROS1)” value was determined as 53%. This compound also gave an IC50 in assay [3] (Mus musculus, BaF3, 72 h) of 155 ± 21 nM.

Consider `C[C@@H](Oc1cc(-c2cnn(C3CCN(CC4CN(c5ccc6c(c5)C(=O)N(C5CCC(=O)NC5=O)C6=O)C4)CC3)c2)cnc1N)c1c(Cl)ccc(F)c1Cl` (stereo partly drawn) [7f, 5-(3-((4-(4-(6-Amino-5-((R)-1-(2,6-dichloro-3-fluorophenyl)ethoxy)pyridin-3-yl)-1H-pyrazol-1-yl)piperidin-1-yl)methyl)azetidin-1-yl)-2-(2,6-dioxopiperidin-3-yl)isoindoline-1,3-dione], for which the IC50 in assay [1] (Mus musculus, BaF3) is greater than 5000 nM. In addition, in assay [2], half-maximal degradation (DC50) was put at 622 nM and the “Dmax (%) (ROS1)” value is 24%. In addition, the IC50 in assay [3] (Mus musculus, BaF3, 72 h) came out at 569 ± 73 nM.

Consider `C[C@@H](Oc1cc(-c2cnn(C3CCN(CC4CCN(c5ccc6c(c5)C(=O)N(C5CCC(=O)NC5=O)C6=O)CC4)CC3)c2)cnc1N)c1c(Cl)ccc(F)c1Cl` (stereo partly drawn) [7g, 5-(4-((4-(4-(6-Amino-5-((R)-1-(2,6-dichloro-3-fluorophenyl)ethoxy)pyridin-3-yl)-1H-pyrazol-1-yl)piperidin-1-yl)methyl)piperidin-1-yl)-2-(2,6-dioxopiperidin-3-yl)isoindoline-1,3-dione], for which, in assay [1] (Mus musculus, BaF3), the half-maximal inhibitory concentration (IC50) was greater than 5000 nM. In assay [2], it took 21 nM to reach half-maximal degradation (DC50) and the “Dmax (%) (ROS1)” value came out at 85%. In addition, half-maximal inhibition in assay [3] (Mus musculus, BaF3, 72 h) (IC50) required 15 ± 4 nM.

Regarding `C[C@@H](Oc1cc(-c2cnn(C3CCN(CCC4CCN(c5ccc6c(c5)C(=O)N(C5CCC(=O)NC5=O)C6=O)CC4)CC3)c2)cnc1N)c1c(Cl)ccc(F)c1Cl` (stereo partly drawn) [7h, 5-(4-(2-(4-(4-(6-Amino-5-((R)-1-(2,6-dichloro-3-fluorophenyl)ethoxy)pyridin-3-yl)-1H-pyrazol-1-yl)piperidin-1-yl)ethyl)piperidin-1-yl)-2-(2,6-dioxopiperidin-3-yl)isoindoline-1,3-dione], the concentration for half-maximal inhibition (IC50) in assay [1] (Mus musculus, BaF3) is greater than 5000 nM. In addition, in assay [2], the DC50 was greater than 1000 nM and the “Dmax (%) (ROS1)” value came out at 11%. In assay [3] (Mus musculus, BaF3, 72 h), this compound yielded an IC50 of 842 ± 172 nM.

Compound `C[C@@H](Oc1cc(-c2cnn(C3CCN(CC4CCN(CC5CCN(c6ccc7c(c6)C(=O)N(C6CCC(=O)NC6=O)C7=O)CC5)CC4)CC3)c2)cnc1N)c1c(Cl)ccc(F)c1Cl` (stereo partly drawn) [7i, 5-(4-((4-((4-(4-(6-Amino-5-((R)-1-(2,6-dichloro-3-fluorophenyl)ethoxy)pyridin-3-yl)-1H-pyrazol-1-yl)piperidin-1-yl)methyl)piperidin-1-yl)methyl)piperidin-1-yl)-2-(2,6-dioxopiperidin-3-yl)isoindoline-1,3-dione] returned an IC50 in assay [1] (Mus musculus, BaF3) greater than 5000 nM. In assay [2], the DC50 turned out to be 338 nM and the “Dmax (%) (ROS1)” value stood at 32%. This compound yielded an IC50 in assay [3] (Mus musculus, BaF3, 72 h) of 284 ± 51 nM.

Regarding `Cc1cc(Nc2ncc(Cl)c(Nc3ccccc3S(=O)(=O)C(C)C)n2)c(OC(C)C)cc1C1CCN(C2CN(C3CCN(c4ccc5c(c4)C(=O)N(C4CCC(=O)NC4=O)C5=O)CC3)C2)CC1` (centres unmarked) [8p, 5-(4-(3-(4-(4-((5-Chloro-4-((2-(isopropylsulfonyl)phenyl)amino)pyrimidin-2-yl)amino)-5-isopropoxy-2-methylphenyl)piperidin-1-yl)azetidin-1-yl)piperidin-1-yl)-2-(2,6-dioxopiperidin-3-yl)isoindoline-1,3-dione], in assay [2], the DC50 amounted to 27 nM and the “Dmax (%) (ROS1)” value was 93%. In assay [3] (Mus musculus, BaF3, 72 h), this compound displayed an IC50 of 40 ± 6 nM.

One may read the IC50 as the concentration needed to halve the response being measured. Low readings indicate inhibition by little substance, high ones a need for much substance. As usually defined, the DC50 is the midpoint of the concentration-degradation curve. The low end stands for degradation at low concentration, the high end for degradation only at high concentration.
